Test results as given in a compilation of properties of binary mixtures (doi:10.1016/j.jct.2020.106150).

Experiment: xn = mol fraction of the nth substance listed
Conditions: 100 kPa

O=Cc1ccco1 + CCCC[P+](C)(CCCC)CCCC.COS(=O)(=O)[O-]
Conditions	speed of sound [m/s]	viscosity [mPa·s]
293.15 K, x2 = 0	1459.1	1.62
293.15 K, x2 = 0.062	1482.3	2.5
293.15 K, x2 = 0.142	1505.9	21.3
293.15 K, x2 = 0.249	1527	65
293.15 K, x2 = 0.317	1541.2	95
293.15 K, x2 = 0.399	1556.3	134
293.15 K, x2 = 0.499	1563.9	190
293.15 K, x2 = 0.732	1568.5	400
293.15 K, x2 = 0.823	1566.1	500
293.15 K, x2 = 0.863	1565.4	560
293.15 K, x2 = 0.91	1563.4	610
293.15 K, x2 = 0.951	1563.1	660
298.15 K, x2 = 0	1440.2	1.48
298.15 K, x2 = 0.142	1489.6	10.1
298.15 K, x2 = 0.191	1499.2	17.1
298.15 K, x2 = 0.249	1511.1	31
298.15 K, x2 = 0.317	1525.5	47
298.15 K, x2 = 0.399	1540.4	72
298.15 K, x2 = 0.499	1548.6	101
298.15 K, x2 = 0.624	1555.2	160
298.15 K, x2 = 0.732	1552.5	270
298.15 K, x2 = 0.823	1550.2	350
298.15 K, x2 = 0.863	1549.3	390
298.15 K, x2 = 0.91	1547.2	440
298.15 K, x2 = 0.951	1546.2	480
303.15 K, x2 = 0	1422	1.36
303.15 K, x2 = 0.062	1454.5	2.14
303.15 K, x2 = 0.1	1463	3.1
303.15 K, x2 = 0.142	1472.1	4.1
303.15 K, x2 = 0.249	1493.1	8.7
303.15 K, x2 = 0.317	1508.5	25
303.15 K, x2 = 0.399	1524.3	40
303.15 K, x2 = 0.499	1534.6	55
303.15 K, x2 = 0.624	1539.8	93
303.15 K, x2 = 0.823	1533.5	260
303.15 K, x2 = 0.863	1532.5	290
303.15 K, x2 = 0.91	1531.2	320
303.15 K, x2 = 0.951	1530.1	350
308.15 K, x2 = 0	1403.8	1.26
308.15 K, x2 = 0.062	1434	1.99
308.15 K, x2 = 0.1	1443.5	3
308.15 K, x2 = 0.191	1466.5	5.6
308.15 K, x2 = 0.249	1476.3	7.7
308.15 K, x2 = 0.399	1508.3	20.4
308.15 K, x2 = 0.499	1515.9	34
308.15 K, x2 = 0.732	1521.5	133
308.15 K, x2 = 0.823	1519.8	194
308.15 K, x2 = 0.863	1517.1	217
308.15 K, x2 = 0.91	1516.5	241
308.15 K, x2 = 0.951	1515.5	270
313.15 K, x2 = 0.062	1418.8	1.76
313.15 K, x2 = 0.142	1438.3	3.6
313.15 K, x2 = 0.191	1449	5.6
313.15 K, x2 = 0.249	1459.5	6.7
313.15 K, x2 = 0.317	1475.5	8.8
313.15 K, x2 = 0.399	1492.4	11.5
313.15 K, x2 = 0.499	1501.5	17.9
313.15 K, x2 = 0.624	1509.5	43
313.15 K, x2 = 0.732	1505.7	101
313.15 K, x2 = 0.823	1504.6	146
313.15 K, x2 = 0.863	1502.3	165
313.15 K, x2 = 0.91	1500.7	185
313.15 K, x2 = 0.951	1500.5	201
318.15 K, x2 = 0	1367.8	1.09
318.15 K, x2 = 0.1	1410.1	2.5
318.15 K, x2 = 0.191	1431.3	4.3
318.15 K, x2 = 0.317	1457.6	7
318.15 K, x2 = 0.399	1476.4	9.9
318.15 K, x2 = 0.624	1494.6	32
318.15 K, x2 = 0.732	1493.4	81
318.15 K, x2 = 0.823	1489.6	116
318.15 K, x2 = 0.863	1488.6	130
318.15 K, x2 = 0.91	1488.2	144
318.15 K, x2 = 0.951	1486.5	158
323.15 K, x2 = 0	1349.9	1.02
323.15 K, x2 = 0.062	1386	1.53
323.15 K, x2 = 0.1	1394.5	2.3
323.15 K, x2 = 0.142	1402.1	3.3
323.15 K, x2 = 0.317	1443.6	6
323.15 K, x2 = 0.399	1460.6	8.6
323.15 K, x2 = 0.499	1469.8	18.6
323.15 K, x2 = 0.624	1479.9	27
323.15 K, x2 = 0.732	1479.9	73
323.15 K, x2 = 0.823	1478.2	99
323.15 K, x2 = 0.863	1477.2	110
323.15 K, x2 = 0.91	1476.1	117
323.15 K, x2 = 0.951	1474.6	126

CCCC[P+](C)(CCCC)CCCC.COS(=O)(=O)[O-] + O=Cc1ccco1
x1 = 1
Conditions	speed of sound [m/s]	viscosity [mPa·s]
293.15 K	1563.7	730
298.15 K	1546.1	520
303.15 K	1529.7	380
308.15 K	1514.3	290
313.15 K	1499.2	217
318.15 K	1485.7	169
323.15 K	1472.1	133
